Counter-ions that a name gives are not always drawn.
Test system: HL60 human leukaemia cell lines
Test: Antiproliferative activity by MTS assay (CellTiter 96 Aqueous One Solution)
Format: cell-based
Details: HL-60, HL60 cells, 72 hr treatment, triplicate
Experimental: Antiproliferative activity was determined by MTS assay (Howell L A, Bowater R A, O'Connell M A, Reszka A P, Neidle S, Searcey M. (2012) Synthesis of Small Molecules Targeting Multiple DNA Structures using Click Chemistry. ChemMedChem, 7, 792-804) using the CellTiter 96 Aqueous One Solution Cell Proliferation Assay (Promega) and following the manufacturer's instructions.
The HL60 cell line was purchased from ECACC (Porton Down, UK). Cells were cultured in RPMI 1640 medium supplemented with 10% foetal calf serum and 2 mM L-glutamine. HL-60 cells were passaged twice weekly and maintained between 1-9×10^5 cells/ml at 37° C. and 5% CO2.
HL-60 cells (3×10^4/100 μl) were seeded in 96-well plates and left untreated or treated with DMSO (vehicle control), duocarmycins, or doxorubicin hydrochloride at 8 concentrations (see below) in triplicate for 72 hr at 37° C. with 5% CO2. Following this, MTS assay reagent was added for 4 hrs and the absorbance measured at 490 nm using the Polarstar Optima microplate reader (BMG Labtech). IC50 values were calculated using GraphPad Prism Version 5.0 software.

- IC50: 125 nM
SMILES: COc1cccc2c1C(=O)c1c(O)c3c(c(O)c1C2=O)C[C@@](O)(C(=O)CO)C[C@@H]3O[C@H]1C[C@H](N)[C@H](O)[C@H](C)O1 [Doxorubicin, doxorubicin hydrochloride]

From patent publication US9765077B2, “Synthesis of duocarmycin analogues” (University of East Anglia, priority 2015, dated 2017)
